Measurements from patent US20250160275A1, “COMPOUNDS FOR MODIFYING MEIOTIC RECOMBINATION AND METHODS RELATING THERETO” (The University of North Carolina at Chapel Hill, priority 2022, published 2025).

What was measured:
[1] = system: flowering Arabidopsis thaliana plants; test: visual fluorescent pollen transgene assay, crossover frequency in interval I5d (chromosome 5); format: in vivo; details: 10% DMSO and 0.01% Silwet; for genetic map distance: p-value 0.000
Experimental: An aqueous solution of 3-aminobutanoic acid was applied to flowering Arabidopsis thaliana plants to enhance the frequency of meiotic recombination (crossovers). Silwet, a spraying adjuvant, was added to the 3-aminobutanoic acid solution at a volume/volume concentration of 0.01%. The solution was applied to the plants by foliar spraying until the plants were drenched. Several concentrations of 3-aminobutanoic acid were used including 0.1, 1, 7.5, 10, 12.5 and 15 mM. As a control, other plants (i.e., control plants) were treated with an aqueous 0.01% solution of Silwet by foliar spraying the solution on the plants until the plants were drenched.
(§1) Crossover frequencies were measured in pollen from treated and control plants using a visual fluorescent pollen transgene assay as described in Francis et al., Proc Natl Acad Sci USA. 2007; 104 (10): 3913-3918. In this assay pollen tetrads are scored as Parental Ditype (PD), Nonparental Ditype (NPD) or Tetratype (TT) and the frequency of those tetrad classes are used to calculate a genetic map distances in centiMorgans (cM) between reporter genes expressing fluorescent proteins. The genetic map distances between a pair of markers on chromosome 5 were compared between control plants and treated plants. The genetic interval between the two markers was designated as I5d. […] In Table 2, each experimental treatment is paired with data from control plants that were treated and scored together and designated with an experiment number in the first column.
An aqueous solution phenethyl isothiocyanate (IUPAC name: 2-isothiocyanatoethylbenzene) was applied to flowering Arabidopsis thaliana plants to enhance the frequency of meiotic recombination (crossovers). Phenethyl isothiocyanate in an aqueous solution containing 10% DMSO and 0.01% Silwet was applied by foliar spray until the plants were drenched. The phenethyl isothiocyanate was first dissolved in 100% DMSO and then diluted to its final concentration with 0.0.1% Silwet in water. Several concentrations of phenethyl isothiocyanate were used including 7.5, 10, and 12.5 mM. Control plants were treated with an aqueous solution of 10% DMSO and 0.01% Silwet by foliar spraying the solution on the control plants until the control plants were drenched.
as §1, with “4,” for “2,”
An aqueous solution BIX-01294 (IUPAC name: N-(1-benzylpiperidin-4-yl)-6,7-dimethoxy-2-(4-methyl-1,4-diazepan-1-yl) quinazolin-4-amine) was applied to flowering Arabidopsis thaliana plants to enhance the frequency of meiotic recombination (crossovers). BIX-01294 in an aqueous solution containing 10% DMSO and 0.01% Silwet was applied by foliar spray until the plants were drenched. The BIX-01294 was first dissolved in 100% DMSO and then diluted to its final concentration with 0.0.1% Silwet in water. Several concentrations of […] were used including 0.5, 1, 2.5 and 5 mM. Control plants were treated with an aqueous solution of 10% DMSO and 0.01% Silwet by foliar spraying the solution on the control plants until the control plants were drenched. […]

[2] = system: rice (Kitaake x Nipponbare F1 plants); test: meiotic recombination in rice F1 plants, recombinant reads in sequenced pollen DNA; format: in vivo, Oryza sativa subspecies japonica; details: 7.5 mM whole-plant spray at panicle stage, 10% DMSO and 0.01% Silwet; pollen harvested after 5-7 days
From the text: Meiotic recombination was stimulated in rice by external application of phenethyl isothiocyanate (IUPAC name: 2-isothiocyanatoethylbenzene). First, two parental rice lines, “Oryza sativa subspecies japonica variety Kitaake” (“Kitaake” hereafter) and “Oryza sativa subspecies japonica variety Nipponbare” (“Nipponbare” hereafter) were manually crossed to produce F1 seeds. F1 seeds were germinated and grown to produce F1 plants. PCR was used to genotype the F1 plants and confirm their heterozygosity. When F1 plants produced panicles (inflorescences) they were treated by spraying the whole plant, until saturation, with 7.5 mM phenethyl isothiocyanate in an aqueous solution containing 10% DMSO and 0.01% Silwet. The phenethyl isothiocyanate was first dissolved in 100% DMSO and then diluted to its final concentration with 0.0.1% Silwet in water. Control plants were mock-treated with 10% DMSO and 0.01% Silwet. […] Reads that spanned at least two parental SNPs were selected and binned into those that contained SNPs of only the Kitaake type (non-recombinant), only the Nipponbare type (non-recombinant) or both Kitaake and Nipponbare type (recombinant). The frequency of recombinant reads from treated and untreated plants were compared to detect an increase in meiotic recombination resulting from treatment with phenethyl isothiocyanate.

S=C=NCCc1ccccc1 [phenethyl isothiocyanate, 2-isothiocyanatoethylbenzene]
NPD (Nonparental Ditype pollen tetrads) ([1]; 7.5 mM foliar spray, Exp.(2)): 2
PD (Parental Ditype pollen tetrads) ([1]; 7.5 mM foliar spray, Exp.(2)): 978
TT (Tetratype pollen tetrads) ([1]; 7.5 mM foliar spray, Exp.(2)): 211
genetic map distance ([1]; 7.5 mM foliar spray, Exp.(2), DMSO control 5.90 cM): 9.36 cM
NPD (Nonparental Ditype pollen tetrads) ([1]; 10 mM foliar spray, Exp.(1)): 0
PD (Parental Ditype pollen tetrads) ([1]; 10 mM foliar spray, Exp.(1)): 1840
TT (Tetratype pollen tetrads) ([1]; 10 mM foliar spray, Exp.(1)): 370
genetic map distance ([1]; 10 mM foliar spray, Exp.(1), DMSO control 5.77 cM): 8.37 cM
NPD (Nonparental Ditype pollen tetrads) ([1]; 12.5 mM foliar spray, Exp.(2)): 0
PD (Parental Ditype pollen tetrads) ([1]; 12.5 mM foliar spray, Exp.(2)): 868
TT (Tetratype pollen tetrads) ([1]; 12.5 mM foliar spray, Exp.(2)): 200
genetic map distance ([1]; 12.5 mM foliar spray, Exp.(2), DMSO control 5.90 cM): 9.36 cM
meiotic recombination in treated plants compared to controls ([1]; all concentrations (7.5, 10, 12.5 mM)): increase meiotic recombination
meiotic recombination in rice [2]: stimulated
